Data: PubChem BioAssay (NCI)
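1) Cells in 96-well plates. 2) Compound, 48 h, 5 concentrations. 3) Linear interpolation between surrounding doses. 4) Unreached endpoint = highest concentration. TGI marks complete inhibition of growth.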

Key:
Assay in all cases: NCI-60 cell line screen, 48 h
MOLT-4 leukemia = tested on: MOLT-4 leukemia
NCI-H522 lung = tested on: NCI-H522 lung
UO-31 renal = tested on: UO-31 renal
MALME-3M melanoma = tested on: MALME-3M melanoma
OVCAR-8 ovarian = tested on: OVCAR-8 ovarian
SK-OV-3 ovarian = tested on: SK-OV-3 ovarian
RXF 393 renal = tested on: RXF 393 renal
SNB-19 CNS = tested on: SNB-19 CNS
MDA-MB-231 breast = tested on: MDA-MB-231 breast
OVCAR-5 ovarian = tested on: OVCAR-5 ovarian
MCF7 breast = tested on: MCF7 breast
CAKI-1 renal = tested on: CAKI-1 renal
HS 578T breast = tested on: HS 578T breast

| SMILES | TGI (MOLT-4 leukemia) | TGI (NCI-H522 lung) | TGI (UO-31 renal) | TGI (MALME-3M melanoma) | TGI (OVCAR-8 ovarian) | TGI (SK-OV-3 ovarian) | TGI (RXF 393 renal) | TGI (SNB-19 CNS) | TGI (MDA-MB-231 breast) | TGI (OVCAR-5 ovarian) | TGI (MCF7 breast) | TGI (CAKI-1 renal) | TGI (HS 578T breast) |
| --- | --- | --- | --- | --- | --- | --- | --- | --- | --- | --- | --- | --- | --- |
| O=C(NN1C(=O)C(Cl)C1c1cccc(Cl)c1)c1ccccc1O (stereo unspecified) | > 100 µM | > 100 µM | > 100 µM | > 100 µM | > 100 µM | > 100 µM | > 100 µM | > 100 µM |  |  |  |  |  |
| CC(CC(C)[C@H]1CCC2[C@H]3C(CC(=O)[C@@]21C)[C@@]1(C)CCC(O)C[C@H]1C[C@@H]3O)C(=O)O (stereo partly specified) | > 100 µM | > 100 µM | > 100 µM | > 100 µM | > 100 µM |  | > 100 µM | > 100 µM | > 100 µM | > 100 µM | > 100 µM | > 100 µM |  |
| COc1cc(/C=C2\C(=O)N(c3ccc(NC(C)=O)cc3)C(c3ccccc3)S2(=O)=O)cc(OC)c1OC (stereo unspecified) | > 100 µM | > 100 µM | > 100 µM | > 100 µM | > 100 µM | > 100 µM | > 100 µM | > 100 µM | > 100 µM | > 100 µM | > 100 µM | > 100 µM |  |
| CCN(CC)c1ccc2cc(-c3csc(C)n3)c(=O)oc2c1 | > 100 µM |  | > 100 µM |  |  | > 100 µM | > 100 µM | > 100 µM | > 100 µM | > 100 µM | > 100 µM | > 100 µM | 67.5 µM |
| C/C(CC(=O)Nc1ccccc1)=N\NC(N)=S | > 100 µM | > 100 µM | > 100 µM | > 100 µM | > 100 µM | > 100 µM | > 100 µM |  |  | > 100 µM |  |  |  |
| CC1CN=C(NS(=O)(=O)c2cc(C(=O)Nc3ccccc3)c(Cl)cc2S)NN1 (stereo unspecified) | > 100 µM | 76.1 µM | > 100 µM | 77 µM | > 100 µM | > 100 µM |  | > 100 µM | > 100 µM | > 100 µM | > 100 µM | > 100 µM |  |
| CC(=O)OC1CC2C(C)(C)OC(=O)CC(OC(C)=O)[C@]2(C)C2CCC3(C)C(=CCC3c3ccoc3)[C@]12C (stereo partly specified) | 52 µM | 81.2 µM | > 100 µM | 92.6 µM | 87.1 µM | 54.1 µM | > 100 µM | > 100 µM |  | > 100 µM |  | > 100 µM |  |
| Cc1ccc(/C=C2\CCCCCC2=O)cc1 | > 100 µM | > 100 µM | > 100 µM | > 100 µM |  | > 100 µM |  | > 100 µM | > 100 µM | > 100 µM |  | > 100 µM | > 100 µM |
| O=C1COc2cc3c(cc2N1)SCCC(=O)N3 | > 100 µM | > 100 µM | > 100 µM | > 100 µM | > 100 µM | > 100 µM |  | > 100 µM |  |  |  | > 100 µM |  |
| C=C(C)CCN(C(=O)OC(C)(C)C)c1cc(C(C)C)co1 | 98 µM |  | > 100 µM |  | > 100 µM | > 100 µM |  | > 100 µM | > 100 µM | > 100 µM | > 100 µM | > 100 µM |  |
| COC(=O)C1=C(C(=O)OC)C(OO)(c2ccccc2)OC1=O (stereo unspecified) | > 100 µM | > 100 µM | > 100 µM | > 100 µM | > 100 µM | > 100 µM | > 100 µM | > 100 µM | > 100 µM | > 100 µM | > 100 µM | > 100 µM |  |
| COC(=O)C1Cc2c([nH]c3ccccc23)-c2[nH]c3ccccc3c2CC(NC(C)=O)C(=O)NCC(=O)NCC(=O)N1 (stereo unspecified) | > 100 µM | > 100 µM | > 100 µM | > 100 µM | > 100 µM | > 100 µM | > 100 µM | > 100 µM | > 100 µM | > 100 µM |  | > 100 µM | > 100 µM |
| O=c1[nH]cc(COCC(O)CO)c(=O)[nH]1 (stereo unspecified) | > 100 µM | > 100 µM | > 100 µM | > 100 µM | > 100 µM | > 100 µM | > 100 µM | > 100 µM |  | > 100 µM |  | > 100 µM |  |
| Oc1ccc2ccccc2c1NCn1nc(CCCCCCCCc2nn(CNc3c(O)ccc4ccccc34)c(=S)o2)oc1=S | > 100 µM | > 100 µM | > 100 µM | > 100 µM |  | > 100 µM |  | > 100 µM | > 100 µM | > 100 µM | > 100 µM | > 100 µM |  |
| O=C(/C=N/O)Nc1ccc(Cl)c(I)c1 | 56.5 µM | 34.6 µM | 33.1 µM | 64.2 µM | > 100 µM | 56 µM | 46.7 µM | 83.9 µM |  | 62.2 µM |  | 45.2 µM |  |
